Results as given in ChEMBL document CHEMBL4334516, “Kinase Chemodiversity from the Arctic: The Breitfussins” (J Med Chem, 2019).

Columns and labels:
[1] = tested on: HT-29; experiment: Cytotoxicity in human HT-29 cells assessed as reduction in cell viability by MTS assay; format: functional, cell-based; details: TDE = time-dependent effect
[2] = molecular target: Mitogen-activated protein kinase 15 (Homo sapiens) (UniProt Q8TD08); experiment: Inhibition of ERK8 (unknown origin) assessed as residual enzyme activity at 50 uM by [33P]-ATP filter binding kinase assay relative to control
[3] = molecular target: T1, Serine/threonine-protein kinase pim-1 (Homo sapiens, UniProt P11309); experiment: Inhibition of PIM1 (unknown origin) assessed as residual enzyme activity at 50 uM by [33P]-ATP filter binding kinase assay relative to control
[4] = molecular target: Receptor-interacting serine/threonine-protein kinase 2 (Homo sapiens, UniProt O43353); experiment: Inhibition of RIPK2 (unknown origin) assessed as residual enzyme activity at 1 uM by [33P]-ATP filter binding kinase assay relative to control
[5] = molecular target: Aurora kinase B (Homo sapiens, UniProt Q96GD4); experiment: Inhibition of Aurora B (unknown origin) assessed as residual enzyme activity at 1 uM by [33P]-ATP filter binding kinase assay relative to control
[6] = molecular target: T2, Mitogen-activated protein kinase kinase kinase 11 (Homo sapiens, UniProt Q16584); experiment: Inhibition of MLK3 (unknown origin) assessed as residual enzyme activity at 1 uM by [33P]-ATP filter binding kinase assay relative to control
[7] = molecular target: Serine/threonine-protein kinase 17B (Homo sapiens) (UniProt O94768); experiment: Binding affinity to wild-type human full length DRAK2 (M1 to C372 residues) expressed in bacterial expression system assessed as residual binding level at 10 uM by active-site directed competition binding assay based Kinomescan method relative to control
[8] = molecular target: Serine/threonine-protein kinase pim-2 (Homo sapiens, UniProt Q9P1W9); experiment: Binding affinity to wild-type human partial length PIM2 (M1 to E291 residues) expressed in bacterial expression system assessed as residual binding level at 10 uM by active-site directed competition binding assay based Kinomescan method relative to control
[9] = molecular target: Mitogen-activated protein kinase 15 (Homo sapiens) (UniProt Q8TD08); experiment: Binding affinity to wild-type human partial length ERK8 (M1 to P437 residues) expressed in bacterial expression system assessed as residual binding level at 10 uM by active-site directed competition binding assay based Kinomescan method relative to control
[10] = molecular target: T3, Mitogen-activated protein kinase kinase kinase 7 (Homo sapiens) (UniProt O43318); experiment: Binding affinity to wild-type human partial length TAK1 (M1 to Q303 residues) expressed in mammalian expression system assessed as residual binding level at 10 uM by active-site directed competition binding assay based Kinomescan method relative to control
T3 sequence (whole entry): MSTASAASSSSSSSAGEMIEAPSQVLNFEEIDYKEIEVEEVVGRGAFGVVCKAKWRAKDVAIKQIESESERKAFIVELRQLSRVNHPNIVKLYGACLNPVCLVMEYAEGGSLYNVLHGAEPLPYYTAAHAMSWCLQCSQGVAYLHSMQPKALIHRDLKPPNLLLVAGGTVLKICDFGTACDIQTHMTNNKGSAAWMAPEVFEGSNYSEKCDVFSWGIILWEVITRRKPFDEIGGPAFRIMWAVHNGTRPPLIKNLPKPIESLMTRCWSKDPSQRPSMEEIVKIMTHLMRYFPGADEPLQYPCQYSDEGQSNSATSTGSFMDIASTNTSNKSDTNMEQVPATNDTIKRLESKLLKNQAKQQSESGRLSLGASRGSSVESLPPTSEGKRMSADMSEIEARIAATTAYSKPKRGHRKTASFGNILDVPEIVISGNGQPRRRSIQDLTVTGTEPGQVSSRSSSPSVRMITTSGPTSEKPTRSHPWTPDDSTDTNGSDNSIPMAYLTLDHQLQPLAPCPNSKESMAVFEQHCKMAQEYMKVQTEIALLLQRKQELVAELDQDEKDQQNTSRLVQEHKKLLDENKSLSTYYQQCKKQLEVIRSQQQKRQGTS

[11] = molecular target: Mitogen-activated protein kinase kinase kinase 9 (Homo sapiens, UniProt P80192); experiment: Binding affinity to wild-type human partial length MLK1 (V88 to W426 residues) expressed in bacterial expression system assessed as residual binding level at 10 uM by active-site directed competition binding assay based Kinomescan method relative to control
[12] = molecular target: T1, Serine/threonine-protein kinase pim-1; experiment: Binding affinity to wild-type human partial length PIM1 (A15 to K313 residues) expressed in bacterial expression system by active-site directed competition binding assay based Kinomescan method
[13] = molecular target: Serine/threonine-protein kinase pim-3 (Homo sapiens, UniProt Q86V86); experiment: Binding affinity to wild-type human partial length PIM3 (G16 to A317 residues) expressed in bacterial expression system by active-site directed competition binding assay based Kinomescan method
[14] = Cytotoxicity in human MT3 cells assessed as reduction in cell viability incubated for 72 hrs by SRB assay; details: MT-3, 72 h
[15] = tested on: NCI-H460; experiment: Cytotoxicity in human NCI-H460 cells assessed as reduction in cell viability incubated for 72 hrs by SRB assay; details: NCI-H460, 72 h
[16] = Solubility in assay media (PTU-E3 water); format: physicochemical; details: buffer
[17] = Toxicity in zebrafish embryos assessed as induction of scoliosis by measuring unaffected embryos level at 14 uM after 72 hrs (reference value: 100%); set-up: species or system Danio rerio; details: in vivo
[18] = Toxicity in zebrafish embryos assessed as induction of general edema by measuring unaffected embryos level at 1.4 uM after 72 hrs (reference value: 100%); set-up: species or system Danio rerio; details: in vivo
[19] = Toxicity in zebrafish embryos assessed as induction of scoliosis by measuring unaffected embryos level at 0.1 uM after 72 hrs (reference value: 100%); set-up: species or system Danio rerio; details: in vivo
[20] = Toxicity in zebrafish embryos assessed as induction of necrosis by measuring unaffected embryos level at 0.1 uM after 72 hrs (reference value: 100%); set-up: species or system Danio rerio; details: in vivo
[21] = Permeability assessed as drug flux at 500 uM incubated for 20 hrs by PAMPA; format: ADME
[22] = tested on: Hs-578T; experiment: cells; details: Homo sapiens, 72 h
[23] = molecular target: AMP-activated protein kinase, AMPK (Homo sapiens) (UniProt P54646+O43741+P54619+Q9UGJ0+Q9Y478+Q13131+Q9UGI9); experiment: Inhibition of AMPK (unknown origin) assessed as residual enzyme activity at 50 uM by [33P]-ATP filter binding kinase assay relative to control; format: protein-complex assay
[24] = molecular target: T2, Mitogen-activated protein kinase kinase kinase 11; experiment: Inhibition of MLK3 (unknown origin) assessed as residual enzyme activity at 5 uM by [33P]-ATP filter binding kinase assay relative to control

## COc1cc2c(-c3cnc(-c4ccc[nH]4)o3)c[nH]c2cc1Br
[1]
  Activity: Tde
[2]
  Activity: 9%
[3]
  Activity: 2%
[4]
  Activity: 41%
[5]
  Activity: 33%
[6]
  Activity: 20%
[7]
  Activity: 1.2%
[8]
  Activity: 54%
[9]
  Activity: 67%
[10]
  Activity: 70%
[11]
  Activity: 59%
[12]
  Kd: 1.2 µM
[13]
  Kd: 4.7 µM
[14]
  IC50: 0.93 µM
[15]
  IC50: 2 µM
[16]
  solubility: Insoluble
[17]
  Activity: 0%
[18]
  Activity: 100%
[19]
  Activity: 95%
[20]
  Activity: 100%
[21]
  permeability: 23%
[22]
  IC50: 5.22 µM

## COc1cc(Br)cc2[nH]cc(-c3oc(-c4ccc[nH]4)nc3I)c12
[23]
  Activity: 28%

## COc1cc(Br)cc2[nH]cc(-c3cnc(-c4ccc[nH]4)o3)c12
[24]
  Activity: 7%
